This is an account of results in US10537550B2, “Methods of treating underlying inflammation from COPD or asthma” (MEDA PHARMA GMBH & CO. KG, priority 2004, dated 2020).

The test system of series [1] is TNFα release from human peripheral blood mononuclear cells (PBMCs). In words: LPS-induced TNFα release from human PBMCs/monocytes (sandwich ELISA). Conditions: LPS 1 μg/ml; for IC50: Homo sapiens, PBMC, read-out: IC50 of inhibition of TNFα release. It counts as cell-based. The protocol:
The influence of R,R-glycopyrrolate in combination with glucocorticoids on TNFα release was investigated by using human peripheral blood mononuclear cells (PBMCs). The study was approved by our institutional Ethics Committee according to the International Declarations of Helsinki and Tokyo. PBMCs were isolated from heparinized blood samples of healthy donors by density gradient centrifugation. An equal volume of Hanks buffer (Life Technologies, Heidelberg, Germany) is added to heparinized whole blood samples. 15 ml Histopaque-1077 (Sigma, Deisenhofen, Germany) are overlayed with a maximum of 40 ml of blood/Hanks mixture were centrifuged for 30 min at room temperature (2000 rpm). A visible band containing PBMCs is transferred to a fresh tube and washed twice with Hanks-buffer. Finally cells are seeded in RPMI 1640 Medium (Life Technologies, Heidelberg, Germany) with Glutamax I (Gibco BRL, Eggenstein) and 10% FCS (Boehringer Mannheim, Penzberg, Germany). After isolated, PBMCs were cultured in RPMI 1640 medium supplemented with 10% fetal calf serum (FCS) at 37° C. 5% CO2 overnight. Monocytes were isolated from other cells by adherence method, non-adherent cells were removed by changing the medium. Cells are re-suspended at 10^6 cells/ml and incubated in 500 μl volumes in 24-well tissue culture plates (Falcon Becton Dickinson Labware) at 37° C., 5% CO2. After pre-incubation with test substances (0.5 μl/500 μl medium) for 30 min, cells were stimulated with lipopolysaccharide (LPS) (1 μg/ml). At indicated times cells were sedimented by centrifugation, the supernatants were harvested and kept frozen at −80° C. until protein determination; the cells were lysed by RLT lysis Buffer (Qiagen, Hilden, Germany) and frozen at −80° C. until analysis. […] Plates are read at 450 nm (reference 570 nm) in a microplate reader (Dynatech). The results are expressed as a percentage of the control level of cytokines production by cells stimulated in the absence of the compound.

For series [2], the system named is pulmonary M1 and M3 muscarinic receptor subtypes. Particulars: following inhalation of single doses; cited from earlier work.
For series [3] the following is noted: in vivo; cited from earlier work.

Where two headings read alike, the source gives them in different places. Bounds are passed on as bounds.

For `C[N+]1(C)CC[C@@H](OC(=O)[C@](O)(c2ccccc2)C2CCCC2)C1.[Br-]` [R,R-glycopyrrolate], in series [1] (alone, up to 10 μmol/l, human monocytes), the “influence on LPS-induced TNFα release” value was “did not influence”.

Turning to `C[N+]1(C)[C@@H]2C[C@@H](OC(=O)C(O)(c3cccs3)c3cccs3)C[C@H]1[C@@H]1O[C@@H]12` [Tiotropium], the duration of bronchodilation in series [2] was 24 h. For orientation: IC50 means the midpoint of a concentration-inhibition curve. In the case of `CCCC1O[C@@H]2C[C@H]3[C@@H]4CCC5=CC(=O)C=C[C@]5(C)[C@H]4[C@@H](O)C[C@]3(C)[C@]2(C(=O)CO)O1` (some centres unmarked) [budesonide], the IC50 in series [1] (budesonide alone, human monocytes) was determined as 0.55 ± 0.13 nM; in series [1] (simultaneous addition of 10 μmol/l R,R-glycopyrrolate, p=0.0251), 0.13 ± 0.03 nM. Take `C[C@@H]1C[C@H]2[C@@H]3C[C@H](F)C4=CC(=O)C=C[C@]4(C)[C@@]3(F)[C@@H](O)C[C@]2(C)[C@@]1(O)C(=O)SCF` [fluticasone]: in series [3], the oral bioavailability is recorded as under 1%.
